Experimental findings from the supplement of paper PMC11061612 are described below.

Assay [1] has as its system ST486 (Burkitt's Lymphoma). The assay can be described thus: Bliss excess, mean over the matrix (fraction); higher = more synergy. The procedure, abridged:
(§1)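 Cell lines grown in DMEM/F12 or RPMI with 10% FBS were plated in 1536-well plates and held 24 hours at 37°C, 5% CO2 before 72 hours of exposure to two-drug dose matrices, with DMSO typically at 0.2%. CellTiter-Glo 2.0 luminescence gave viability, which was converted to inhibition. Vehicle wells were set to 0 and blank wells to 1. Combination Emax is the second-highest inhibition in the matrix, and Bliss excess is the observed combination effect minus the expected EA + EB − EA·EB, where EA and EB are the single-agent effects.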

Assay [2] relates to H9 (T-Cell Non-Hodgkin's Lymphoma). Described as above. The essentials:
as §1

Structures are written as SMILES.

Turning to `CCc1c2c(nc3ccc(O)cc13)-c1cc3c(c(=O)n1C2)COC(=O)[C@]3(O)CC` [SN-38] + O=C(c1cc(Cc2n[nH]c(=O)c3ccccc23)ccc1F)N1CCN(C(=O)C2CC2)CC1 [Olaparib] (first compound max 0.3 µM, 7x7, partner max 10 µM), the Bliss excess in assay [1] amounted to 0.0826; in assay [2], 0.111. For the compound `Cc1cc2ncnn2cc1Nc1ncc2c(n1)n(C1CCOCC1)c(=O)n2C` [AZD7648] + O=C(c1cc(Cc2n[nH]c(=O)c3ccccc23)ccc1F)N1CCN(C(=O)C2CC2)CC1 [Olaparib] (first compound max 10 µM, 7x7, partner max 10 µM), the Bliss excess is 0.0048 in assay [1] and -0.0049 in assay [2]. For `COc1cccc(OCCCN)c1-c1cc(Nc2cnc(C#N)cn2)n[nH]1` [Prexasertib] + CCc1c2c(nc3ccc(O)cc13)-c1cc3c(c(=O)n1C2)COC(=O)[C@]3(O)CC [SN-38] (first compound max 1 µM, 7x7, partner max 0.3 µM), in that order: 0.0412 and -0.0004. In the case of `Cc1c2c(nn1C)CSCc1cc(n(C)n1)CSc1cc(c3ccccc3c1)OCCCc1c(C(=O)O)n(C)c3c-2c(Cl)ccc13` [AZD5991] + C[C@@H](Nc1cc(F)cc(F)c1)c1cc(C(=O)N(C)C)cc2c(=O)cc(N3CCOCC3)oc12 [AZD8186] (first compound max 1 µM, 7x7, partner max 3 µM), the values for the Bliss excess in assay [1] and in assay [2] were -0.0659 and -0.0485, respectively. For `COc1cccc2c1C(=O)c1c(O)c3c(c(O)c1C2=O)C[C@@](O)(C(=O)CO)C[C@@H]3O[C@H]1C[C@H](N)[C@H](O)[C@H](C)O1` [Doxorubicin] + Cc1cc2ncnn2cc1Nc1ncc2c(n1)n(C1CCOCC1)c(=O)n2C [AZD7648] (first compound max 1 µM, 7x7, partner max 10 µM), in that order: 0.0895 and 0.0887. For `CN(C)CCCOc1ccc(-c2ccc3ncc4c(c3c2)n(C2CCOCC2)c(=O)n4C)cn1` [AZD0156] + CCN(CCO)CCCOc1ccc2c(Nc3cc(CC(=O)Nc4cccc(F)c4)[nH]n3)ncnc2c1 [AZD2811] (first compound max 1 µM, 7x7, partner max 1 µM) the same measures were -0.11 and -0.124. For `COc1cccc(OCCCN)c1-c1cc(Nc2cnc(C#N)cn2)n[nH]1` [Prexasertib] + CN(C)CCCOc1ccc(-c2ccc3ncc4c(c3c2)n(C2CCOCC2)c(=O)n4C)cn1 [AZD0156] (first compound max 1 µM, 7x7, partner max 1 µM) the same measures were -0.0139 and 0.0022.

`Cc1c2c(nn1C)CSCc1cc(n(C)n1)CSc1cc(c3ccccc3c1)OCCCc1c(C(=O)O)n(C)c3c-2c(Cl)ccc13` [AZD5991] + CCN(CCO)CCCOc1ccc2c(Nc3cc(CC(=O)Nc4cccc(F)c4)[nH]n3)ncnc2c1 [AZD2811] (first compound max 1 µM, 7x7, partner max 1 µM): the Bliss excess in assay [1] was -0.0575; in assay [2], -0.0072. On to `COc1nnc2ccc(N3CCC(c4ccc(OCCN5CCN(C)C(=O)[C@H]5C)cc4)CC3)nn12` [AZD5153] + CN(CC[C@H](CSC1=CC=CC=C1)NC2=C(C=C(C=C2)S(=O)(=O)NC(=O)C3=CC=C(C=C3)N4CCC(CC4)[C@H](C5=CC=CC=C5C6=CC=C(C=C6)Cl)O)S(=O)(=O)C(F)(F)F)CCO [AZD4320] (first compound max 1 µM, 7x7, partner max 1 µM), for which the Bliss excess in assay [2] was -0.0291. In the case of `CN(CCO)CC[C@H](CSc1ccccc1)Nc1ccc(S(=O)(=O)NC(=O)c2ccc(N3CCC([C@@H](O)c4ccccc4-c4ccc(Cl)cc4)CC3)cc2)cc1S(=O)(=O)C(F)(F)F` [AZD4320] + CN(C)CCCOc1ccc(-c2ccc3ncc4c(c3c2)n(C2CCOCC2)c(=O)n4C)cn1 [AZD0156] (first compound max 1 µM, 7x7, partner max 1 µM), the Bliss excess is -0.0086 in assay [1] and -0.0151 in assay [2]. For `CC(=O)Nc1cccc(-n2c(=O)n(C3CC3)c(=O)c3c(Nc4ccc(I)cc4F)n(C)c(=O)c(C)c32)c1` [Trametinib] + Cc1nc(-c2cn3c(n2)-c2ccc(-c4cnn(C(C)(C)C(N)=O)c4)cc2OCC3)n(C(C)C)n1 [Taselisib] (first compound max 1 µM, 7x7, partner max 10 µM) the same measures were -0.033 and 0.0402.

Turning to `Cc1c2c(nn1C)CSCc1cc(n(C)n1)CSc1cc(c3ccccc3c1)OCCCc1c(C(=O)O)n(C)c3c-2c(Cl)ccc13` [AZD5991] + CN(C)CCCOc1ccc(-c2ccc3ncc4c(c3c2)n(C2CCOCC2)c(=O)n4C)cn1 [AZD0156] (first compound max 1 µM, 7x7, partner max 1 µM), the Bliss excess is -0.0716 in assay [1] and 0.0314 in assay [2]. For `CN(C)CCCOc1ccc(-c2ccc3ncc4c(c3c2)n(C2CCOCC2)c(=O)n4C)cn1` [AZD0156] + C[C@@H]1COCCN1C2=NC(=NC(=C2)C3(CC3)[S@](=N)(=O)C)C4=C5C=CNC5=NC=C4 [AZD6738] (first compound max 1 µM, 7x7, partner max 10 µM) the same measures were 0.0016 and 0.0525.

Turning to `C[C@@H](c1ccc2nccn2c1)n1nnc2ncc(-c3cnn(C)c3)nc21` [Savolitinib] + CN(CC[C@H](CSC1=CC=CC=C1)NC2=C(C=C(C=C2)S(=O)(=O)NC(=O)C3=CC=C(C=C3)N4CCC(CC4)[C@H](C5=CC=CC=C5C6=CC=C(C=C6)Cl)O)S(=O)(=O)C(F)(F)F)CCO [AZD4320] (first compound max 1 µM, 7x7, partner max 1 µM), the Bliss excess in assay [2] is -0.0425. As to `CC1(C)CCC(CN2CCN(c3ccc(C(=O)NS(=O)(=O)c4ccc(NCC5CCOCC5)c([N+](=O)[O-])c4)c(Oc4cnc5[nH]ccc5c4)c3)CC2)=C(c2ccc(Cl)cc2)C1` [Venetoclax] + C1CN(CCC1(C(=O)N[C@@H](CCO)C2=CC=C(C=C2)Cl)N)C3=NC=NC4=C3C=CN4 [Capivasertib] (first compound max 1 µM, 7x7, partner max 3 µM), the Bliss excess was -0.0348 in assay [1] and -0.02 in assay [2]. In the case of `C=CCn1c(=O)c2cnc(Nc3ccc(N4CCN(C)CC4)cc3)nc2n1-c1cccc(C(C)(C)O)n1` [AZD1775] + O=C(c1cc(Cc2n[nH]c(=O)c3ccccc23)ccc1F)N1CCN(C(=O)C2CC2)CC1 [Olaparib] (first compound max 1 µM, partner max 10 µM), the values for the Bliss excess in assay [1] and in assay [2] were -0.0197 and -0.0075, respectively. For `CC1(C)CCC(CN2CCN(c3ccc(C(=O)NS(=O)(=O)c4ccc(NCC5CCOCC5)c([N+](=O)[O-])c4)c(Oc4cnc5[nH]ccc5c4)c3)CC2)=C(c2ccc(Cl)cc2)C1` [Venetoclax] + Cc1cc2ncnn2cc1Nc1ncc2c(n1)n(C1CCOCC1)c(=O)n2C [AZD7648] (first compound max 1 µM, 7x7, partner max 10 µM) the same measures were -0.0376 and -0.0194.

As to `CC1(C)CCC(CN2CCN(c3ccc(C(=O)NS(=O)(=O)c4ccc(NCC5CCOCC5)c([N+](=O)[O-])c4)c(Oc4cnc5[nH]ccc5c4)c3)CC2)=C(c2ccc(Cl)cc2)C1` [Venetoclax] + COc1cc(Nc2ncc3c(n2)-c2ccc(Cl)cc2C(c2c(F)cccc2OC)=NC3)ccc1C(=O)O [Alisertib] (first compound max 1 µM, 7x7, partner max 10 µM), the Bliss excess was -0.133 in assay [1] and -0.0674 in assay [2]. For `Cc1c2c(nn1C)CSCc1cc(n(C)n1)CSc1cc(c3ccccc3c1)OCCCc1c(C(=O)O)n(C)c3c-2c(Cl)ccc13` [AZD5991] + C[C@@H]1COCCN1C2=NC(=NC(=C2)C3(CC3)[S@](=N)(=O)C)C4=C5C=CNC5=NC=C4 [AZD6738] (first compound max 1 µM, 7x7, partner max 10 µM) the same measures were 0.0248 and 0.0395. For `CN(CCO)CC[C@H](CSc1ccccc1)Nc1ccc(S(=O)(=O)NC(=O)c2ccc(N3CCC([C@@H](O)c4ccccc4-c4ccc(Cl)cc4)CC3)cc2)cc1S(=O)(=O)C(F)(F)F` [AZD4320] + Cn1cnc2c(F)c(Nc3ccc(Br)cc3Cl)c(C(=O)NOCCO)cc21 [Selumetinib] (first compound max 1 µM, 7x7, partner max 3 µM) the same measures were 0.0086 and -0.0113. For `CN(CCO)CC[C@H](CSc1ccccc1)Nc1ccc(S(=O)(=O)NC(=O)c2ccc(N3CCC([C@@H](O)c4ccccc4-c4ccc(Cl)cc4)CC3)cc2)cc1S(=O)(=O)C(F)(F)F` [AZD4320] + Cc1cc2ncnn2cc1Nc1ncc2c(n1)n(C1CCOCC1)c(=O)n2C [AZD7648] (first compound max 1 µM, 7x7, partner max 10 µM), in that order: -0.0066 and 0.0046. `Cc1c2c(nn1C)CSCc1cc(n(C)n1)CSc1cc(c3ccccc3c1)OCCCc1c(C(=O)O)n(C)c3c-2c(Cl)ccc13` [AZD5991] + CC1(C)CCC(CN2CCN(c3ccc(C(=O)NS(=O)(=O)c4ccc(NCC5CCOCC5)c([N+](=O)[O-])c4)c(Oc4cnc5[nH]ccc5c4)c3)CC2)=C(c2ccc(Cl)cc2)C1 [Venetoclax] (first compound max 1 µM, 7x7, partner max 1 µM): the Bliss excess in assay [1] turned out to be 0.0088; in assay [2], 0.0048. For `Cc1cc2ncnn2cc1Nc1ncc2c(n1)n(C1CCOCC1)c(=O)n2C` [AZD7648] + CCN(CCO)CCCOc1ccc2c(Nc3cc(CC(=O)Nc4cccc(F)c4)[nH]n3)ncnc2c1 [AZD2811] (first compound max 10 µM, 7x7, partner max 1 µM), in that order: -0.0697 and -0.0378. Regarding `Cc1c2c(nn1C)CSCc1cc(n(C)n1)CSc1cc(c3ccccc3c1)OCCCc1c(C(=O)O)n(C)c3c-2c(Cl)ccc13` [AZD5991] + Cc1cc2ncnn2cc1Nc1ncc2c(n1)n(C1CCOCC1)c(=O)n2C [AZD7648] (first compound max 1 µM, 7x7, partner max 10 µM), the Bliss excess in assay [1] was -0.053.

Take `Cc1c2c(nn1C)CSCc1cc(n(C)n1)CSc1cc(c3ccccc3c1)OCCCc1c(C(=O)O)n(C)c3c-2c(Cl)ccc13` [AZD5991] + C1CN(CCC1(C(=O)N[C@@H](CCO)C2=CC=C(C=C2)Cl)N)C3=NC=NC4=C3C=CN4 [Capivasertib] (first compound max 1 µM, 7x7, partner max 3 µM): the Bliss excess in assay [2] was -0.0514.
